Reference: patent US20210369677A1, “SMALL MOLECULE ACTIVATORS OF POLYCYSTIN-2 (PKD2) AND USES THEREOF” (Northwestern University, priority 2020, published 2021)

Target: T1, polycystin-2 (Homo sapiens, UniProt Q13563, C437S/C632S)
T1 construct: expressed in transfected cells
T1 sequence (Q13563 1-968 C437S/C632S): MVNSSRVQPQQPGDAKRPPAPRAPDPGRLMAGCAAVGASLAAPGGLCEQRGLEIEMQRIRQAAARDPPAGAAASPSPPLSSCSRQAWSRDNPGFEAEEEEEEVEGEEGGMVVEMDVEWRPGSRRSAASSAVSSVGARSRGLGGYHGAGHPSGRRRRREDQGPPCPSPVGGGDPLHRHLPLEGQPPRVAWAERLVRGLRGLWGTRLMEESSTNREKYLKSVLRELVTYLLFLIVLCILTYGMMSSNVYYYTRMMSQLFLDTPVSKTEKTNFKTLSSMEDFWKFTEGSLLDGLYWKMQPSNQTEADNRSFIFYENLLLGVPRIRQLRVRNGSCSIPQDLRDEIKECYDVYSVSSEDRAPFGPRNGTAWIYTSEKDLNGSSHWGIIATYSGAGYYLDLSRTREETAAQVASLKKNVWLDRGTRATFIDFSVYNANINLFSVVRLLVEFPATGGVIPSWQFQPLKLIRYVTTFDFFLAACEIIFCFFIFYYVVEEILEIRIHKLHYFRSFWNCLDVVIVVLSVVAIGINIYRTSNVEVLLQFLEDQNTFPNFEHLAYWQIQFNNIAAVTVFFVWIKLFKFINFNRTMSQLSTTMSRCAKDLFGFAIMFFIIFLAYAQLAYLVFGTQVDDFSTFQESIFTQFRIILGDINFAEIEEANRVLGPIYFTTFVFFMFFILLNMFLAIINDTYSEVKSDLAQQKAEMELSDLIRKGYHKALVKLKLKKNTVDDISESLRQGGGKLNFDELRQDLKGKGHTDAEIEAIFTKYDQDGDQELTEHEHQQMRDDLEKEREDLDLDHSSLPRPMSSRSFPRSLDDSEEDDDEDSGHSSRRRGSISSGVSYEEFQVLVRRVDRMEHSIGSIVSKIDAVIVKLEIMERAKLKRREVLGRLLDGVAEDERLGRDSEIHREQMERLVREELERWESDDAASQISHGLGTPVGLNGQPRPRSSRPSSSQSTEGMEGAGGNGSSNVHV
Assay type: cell-based
Settings: C437S:C632S double mutant
From the text: Generation of HEK PKD2^Null cells line and the stable expression PKD2 variants. To generate the HEK PKD2^Null cell lines, we used a CRISPR/Cas9 gene editing kit available from Addgene (kit 1000000055). HEK 293 cells were electro-transfected with sgRNAs (caccg[…] and aaac[…]c) with the All-in-one Cas9 plasmid. […] Cells generated from single cell clones were selected after 4 weeks of expansion in a 96-wells plate. […] To generate the WT and variant PKD2 GFP or mCherry C-terminally tagged variant cell lines, the hPKD gene was subcloned into lentiviral pLVX-mcherry-N1 (Clontech) or pLVX-GFP-N1 (Clontech) vector using the Gibson assembly method. A linker encoding for six glycine residues was added between the PKD2 gene and the C-terminal tags, and missense variants were generated using standard, site-directed mutagenesis. The third-generation lentiviral packaging plasmids used for stable expression contained: pMDLg/pRRE (Addgene), […] pRSV-Rev (Addgene), and envelope expressing plasmid pMD2.G (Addgene). LentiX-293T cells (Takara) were transfected with polyethylineimine (Polysciences) at a 4:1:1:1 ratio of the transgene and viral packaging constructs. Supernatants were collected 48 and 72 hours post transfection and filtered through a 0.45 μm syringe filter. Lentiviral supernatant was concentrated 100 times using 1 volume of PEG-it (System Biosciences) virus precipitation solution and 4 volume of lentivirus-containing supernatant. The PEG-it and supernatant mixture were kept at 4 degrees for 24 hours and centrifuged at 1500 rpm for 30 minutes. The pellet containing lentivirus was resuspended with 1/100th volume of PBS of the original supernatant volume. HEK cells were infected with the lentivirus supernatant; PKD2-GFP or PKD2-mCherry expression was selected using culture media containing puromycin (2 μg/ml) for 30 to 90 days. Cells were then fluorescence-activated cell sorted (BD FacsMelody) at 5000 to 10,000 counts per minute to enrich for the transgene expression. Stable cell lines were cultured in Dulbecco's modified essential medium (DMEM) supplemented with 10% fetal bovine serum (FBS) and 100 units/ml penicillin, 100 units/ml streptomycin and 1 μg/ml puromycin selection antibiotic.
Electrophysiology. Ciliary ion currents were recorded using borosilicate glass electrodes polished to resistances of 14-22 MΩ using the cilium patch method previously described^32. Whole cell electrodes used to measure poly cystin-2L1 currents were fire polished to 1.5-4 MΩ resistances. Unless otherwise stated, whole cilia ionic currents were recorded in symmetrical [Na^+]. The pipette standard internal solution contained (in mM): 90 NaMES, 10 NaCl, 10 HEPES, 10 Na4-BAPTA (Glycine, N, N′-[1,2-ethanediylbis(oxy-2,1-phenylene)]bis[N-(carboxymethyl)]-,tetrasodium); pH was adjusted to 7.3 using NaOH. Standard bath solution contained 140 NaCl, 10 HEPES, 1.8 CaCl2); pH 7.4. All solutions were osmotically balanced to 295 (±6) mOsm with mannitol. Extracellular solutions containing TCEP and GSH were used within six hours of formulation. Data were collected using an Axopatch 200B patch clamp amplifier, Digidata 1440A, and pClamp 10 software. Whole-cilium and excised patch currents were digitized at 25 kHz and low-pass filtered at 10 kHz. In the whole cilium configuration, the holding potential was −60 mV and then depolarized using a 400 ms voltage ramp from −100 mV to 100 mV. The whole cell recordings of polycystin-2L1 currents were either activated by the same ramp protocol or by 100 ms depolarizations to 100 mV from a −100 mV holding potential.

Compound | Effect on C437S:C632S double mutant channel cilia current
O=C(O)CCP(CCC(=O)O)CCC(=O)O [TCEP, tris-2-carboxyethyl phosphine] | retained its sensitivity
N[C@@H](CCC(=O)N[C@@H](CS)C(=O)NCC(=O)O)C(=O)O [GSH, reduced glutathione] | retained its sensitivity
